Several values for one entry are separate records, joined by “and”; a condition that tells them apart may be missing. Identical values can stand only once. Marks after values point to notes of the source that are not given here.
What was measured:
Type in all cases: physicochemical
[1] = Separation of Eu/Yb mixture by precipitation from water/acetonitrile solutions using L5 (Example 17); conditions: for Precipitate concentration [mM] Eu / Precipitate concentration [mM] Yb: dissolved to 100 μL
Procedure: 3 reaction mixtures, differing in acetonitrile content (group A=10%, group B=20%, group C=50%) were prepared in plastic round-bottom 2 mL Eppendorf tubes, each in duplicate. For group A, the stock solutions were pipetted as follows: 5 μL 100 mM aqueous solution of EuCl3; 5 μL 100 mM aqueous solution YbC13; 10 μL 100 mM aqueous solution of compound L5; 20 μL 3 M MOPS buffer pH=7; 50 μL water; 10 μL acetonitrile.
For group B, the stock solutions were pipetted as follows: 5 μL 100 mM aqueous solution of EuCl3; 5 μL 100 mM aqueous solution YbC13; 10 μL 100 mM aqueous solution of compound L5; 20 μL 3 M MOPS buffer pH=7; 40 μL water; 20 μL acetonitrile. For group C, the stock solutions were pipetted as follows: 5 μL 100 mM aqueous solution of EuCl3; 5 μL 100 mM aqueous solution YbC13; 10 μL 100 mM aqueous solution of compound L5; 20 μL 3 M MOPS buffer pH=7; 10 μL water; 50 μL acetonitrile.
Each tube was equipped with one PTFE-coated magnetic stir bar and sealed, and the mixture was stirred on a magnetic stirrer for 24 hours at room temperature. The tubes were then centrifuged and the supernatants were carefully pipetted out and transferred to a new set of tubes. To the precipitate was added 100 μL 1 M HCl and mixture was stirred until full dissolution (overnight at room temperature, pH=0). Concentrations of Eu and Yb in the supernatants and in the re-dissolved precipitates were determined by ICP-OES. The resulting absolute concentrations of both metals in the supernatants and precipitates, as well as calculated values of the separation factor Yb/Eu according to the formula from Example 11), are summarized in Table 11.

[2] = Separation of Nd/Pr/Tb/Dy mixture by precipitation using L5 and α-HIBA (Example 23)
Procedure: These aqueous reaction mixtures, each prepared to a total volume of 1.5 mL with the addition of water as necessary, were mixed by the use of a PTFE-coated stir bar on a magnetic stirrer. The cuvettes were sealed with transparent tape to prevent evaporation overnight. […] The supernatants were carefully pipetted out and transferred to a new set of tubes. […] The absolute concentration of the four metals in each supernatant and precipitate was determined by ICP-OES.

[3] = Removal of additive from remaining solution after precipitation by ultrafiltration (Example 25); conditions: Ln chelates of L5
[4] = Separation of Eu/Yb mixture by precipitation using L5 (Example 15); conditions: for Precipitate concentration [mM] Eu / Precipitate concentration [mM] Yb: dissolved to 150 μL
Procedure: Stock solutions were pipetted into round-bottom 2 mL Eppendorf tubes as follows: • 1. 15 μL 100 mM aqueous solution of EuCl3 • 2. 10 μL 100 mM aqueous solution of YbCl3 • 3. 30 μL 100 mM aqueous solution of compound L5. • 4. 90 μL 0.5 M MOPS buffer pH=7.
Three identical reaction mixtures were prepared. Each tube was equipped with one PTFE-coated magnetic stir bar and sealed, and the mixture was stirred on a magnetic stirrer for 24 hours at room temperature. The tubes were then centrifuged and the supernatants were carefully pipetted out and transferred to a new set of tubes. To the precipitate was added 100 μL 1 M HCl (reaching pH=0) and the mixture was stirred until full dissolution (overnight at room temperature, pH=0). The overall volume of the solution was adjusted to 150 μL volume by addition of water. The supernatants were treated with 1 M HCl for a total volume of 150 μL and pH=0.5. Concentrations of Eu and Yb in the supernatants and in the re-dissolved precipitates were determined by ICP-OES. The resulting absolute concentrations of both metals in the supernatants and precipitates, as well as calculated values of the separation factor Yb/Eu according to formula from Example 11), are summarized in Table 9. […] The average separation factor value was 152.

[5] = group A, 10% acetonitrile, mean of duplicates
[6] = group B, 20% acetonitrile, mean of duplicates
[7] = group C, 50% acetonitrile, mean of duplicates
[8] = L5 + α-HIBA, MOPS pH=7, 18 hours, individual samples A, B, C
[9] = L5 + α-HIBA, MOPS pH=7, 18 hours, precipitate dissolved to 500 μL, individual samples A, B, C

Question: For `O=C(O)CN1CCN(CC(=O)O)CCN(Cc2cccc3ccccc23)CCN(CC(=O)O)CC1` [L5, 2,2′,2″-(10-(naphthalene-1-ylmethyl)-1,4,7,10-tetraazacyklododekane-1,4,7-triyl)triacetic acid], which “Supernatant concentration [mM] Eu” value ([1]; group A, 10% acetonitrile) is on record?
Answer: 0.58 mM and 0.35 mM

Question: And the “Supernatant concentration [mM] Yb” value ([1]; group A, 10% acetonitrile)?
Answer: 4.55 mM and 4.42 mM

Question: And the “Precipitate concentration [mM] Eu” value ([1]; group A, 10% acetonitrile)?
Answer: 2.78 mM and 2.98 mM

Question: And the “Precipitate concentration [mM] Yb” value ([1]; group A, 10% acetonitrile)?
Answer: 0.29 mM and 0.36 mM

Question: And the “Precipitate concentration [mM] Eu” value [1, 5]?
Answer: 2.88 mM

Question: What about the “Precipitate concentration [mM] Yb” value [1, 5] of the same molecule?
Answer: 0.32 mM

Question: What about the “Supernatant concentration [mM] Eu” value [1, 5] of the same molecule?
Answer: 0.47 mM

Question: And the “Supernatant concentration [mM] Yb” value [1, 5]?
Answer: 4.48 mM

Question: What about the “Supernatant concentration [mM] Eu” value ([1]; group B, 20% acetonitrile) of the same molecule?
Answer: 0.45 mM and 0.63 mM

Question: What about the “Supernatant concentration [mM] Yb” value ([1]; group B, 20% acetonitrile) of the same molecule?
Answer: 3.99 mM and 4.71 mM

Question: And the “Precipitate concentration [mM] Eu” value ([1]; group B, 20% acetonitrile)?
Answer: 3.16 mM and 2.95 mM

Question: What about the “Precipitate concentration [mM] Yb” value ([1]; group B, 20% acetonitrile) of the same molecule?
Answer: 0.38 mM and 0.41 mM

Question: And the “Precipitate concentration [mM] Eu” value [1, 6]?
Answer: 3.06 mM

Question: And the “Precipitate concentration [mM] Yb” value [1, 6]?
Answer: 0.40 mM

Question: And the “Supernatant concentration [mM] Eu” value [1, 6]?
Answer: 0.54 mM

Question: What about the “Supernatant concentration [mM] Yb” value [1, 6] of the same molecule?
Answer: 4.35 mM

Question: And the “Supernatant concentration [mM] Eu” value ([1]; group C, 50% acetonitrile)?
Answer: 1.51** mM and 0.79** mM

Question: And the “Supernatant concentration [mM] Yb” value ([1]; group C, 50% acetonitrile)?
Answer: 6.29** mM and 5.77** mM

Question: What about the “Precipitate concentration [mM] Eu” value ([1]; group C, 50% acetonitrile) of the same molecule?
Answer: 3.22 mM and 3.90 mM

Question: What about the “Precipitate concentration [mM] Yb” value ([1]; group C, 50% acetonitrile) of the same molecule?
Answer: 0.42 mM and 0.37 mM

Question: And the “Precipitate concentration [mM] Eu” value [1, 7]?
Answer: 3.56 mM

Question: And the “Precipitate concentration [mM] Yb” value [1, 7]?
Answer: 0.39 mM

Question: And the “Supernatant concentration [mM] Eu” value [1, 7]?
Answer: 1.15 mM

Question: What about the “Supernatant concentration [mM] Yb” value [1, 7] of the same molecule?
Answer: 6.03 mM

Question: What about the “supernatant concentration Dy” value [2, 8] of the same molecule?
Answer: 1.73 and 1.38 and 1.65

Question: What about the “supernatant concentration Nd” value [2, 8] of the same molecule?
Answer: 1.31 and 0.78 and 0.98

Question: What about the “supernatant concentration Pr” value [2, 8] of the same molecule?
Answer: 0.32 and 0.20 and 0.24

Question: And the “supernatant concentration Tb” value [2, 8]?
Answer: 1.22 and 1.00 and 1.17

Question: And the “precipitate concentration Dy” value [2, 9]?
Answer: 1.04 and 0.95 and 1.05

Question: What about the “precipitate concentration Nd” value [2, 9] of the same molecule?
Answer: 8.60 and 7.83 and 8.96

Question: What about the “precipitate concentration Pr” value [2, 9] of the same molecule?
Answer: 2.30 and 2.08 and 2.40

Question: What about the precipitate concentration Tb [2, 9] of the same molecule?
Answer: 1.25 mM (2×) and 1.11 mM

Question: What about the “precipitate concentration Dy, average” value ([2]; average of samples A-C) of the same molecule?
Answer: 1.01

Question: And the “precipitate concentration Nd, average” value ([2]; average of samples A-C)?
Answer: 8.46

Question: What about the “precipitate concentration Pr, average” value ([2]; average of samples A-C) of the same molecule?
Answer: 2.26

Question: What about the “precipitate concentration Tb, average” value ([2]; average of samples A-C) of the same molecule?
Answer: 1.20

Question: And the “supernatant concentration Dy, average” value ([2]; average of samples A-C)?
Answer: 1.59

Question: And the “supernatant concentration Nd, average” value ([2]; average of samples A-C)?
Answer: 1.03

Question: What about the “supernatant concentration Pr, average” value ([2]; average of samples A-C) of the same molecule?
Answer: 0.25

Question: And the “supernatant concentration Tb, average” value ([2]; average of samples A-C)?
Answer: 1.13

Question: And the “% comp of precipitate, Dy” value ([2]; percent composition of phase)?
Answer: 7.8%

Question: What about the “% comp of precipitate, Nd” value ([2]; percent composition of phase) of the same molecule?
Answer: 65.4%

Question: And the “% comp of precipitate, Pr” value ([2]; percent composition of phase)?
Answer: 17.5%

Question: What about the “% comp of precipitate, Tb” value ([2]; percent composition of phase) of the same molecule?
Answer: 9.3%

Question: And the “% comp of supernatant, Dy” value ([2]; percent composition of phase)?
Answer: 39.7%

Question: What about the “% comp of supernatant, Nd” value ([2]; percent composition of phase) of the same molecule?
Answer: 25.7%

Question: What about the “% comp of supernatant, Pr” value ([2]; percent composition of phase) of the same molecule?
Answer: 6.3%

Question: What about the “% comp of supernatant, Tb” value ([2]; percent composition of phase) of the same molecule?
Answer: 28.3%

Question: And the “% of initial [chelate] in filtrate” value ([3]; additive acetate 76 mM)?
Answer: 0.8%

Question: What about the “% of initial [chelate] in filtrate” value ([3]; additive benzoic acid 76 mM) of the same molecule?
Answer: 0.3%

Question: What about the “% of initial [chelate] in filtrate” value ([3]; additive α-HIBA 30.4 mM) of the same molecule?
Answer: 0.4%

Question: What about the “Supernatant concentration [mM] Eu” value [4] of the same molecule?
Answer: 0.16 mM and 0.22 mM

Question: And the “Supernatant concentration [mM] Yb” value [4]?
Answer: 3.69 mM and 3.85 mM and 3.97 mM

Question: And the “Precipitate concentration [mM] Eu” value [4]?
Answer: 4.66 mM and 4.57 mM and 4.50 mM

Question: And the “Precipitate concentration [mM] Yb” value [4]?
Answer: 0.63 mM and 0.62 mM and 0.58 mM

Question: What about the “Precipitate concentration [mM] Eu” value ([4]; mean) of the same molecule?
Answer: 4.58 mM

Question: And the “Precipitate concentration [mM] Yb” value ([4]; mean)?
Answer: 0.61 mM

Question: What about the “Supernatant concentration [mM] Eu” value ([4]; mean) of the same molecule?
Answer: 0.19 mM

Question: And the “Supernatant concentration [mM] Yb” value ([4]; mean)?
Answer: 3.84 mM

— US20230356105A1, “TETRAAZADODECANE BASED CHELATING AGENTS FOR SEPARATION OF RARE EARTH ELEMENTS AND METHOD THEREFOR” (Ustav Organicke Chemie a Biochemie AV CR V.V.I., priority 2020, published 2023)
